# From the OligoGym collection
# “And” between values parts separate entries of the source, which are not always exact repeats. Equal entries are not always repeated. After the bases stand the sugars from the 5' end (letter, count) and the backbone: PS all phosphorothioate, else s phosphorothioate and o phosphodiester by linkage. Methylation of C is not given here. e = 2'-O-(2-methoxyethyl) (MOE); k = constrained ethyl (cEt); d = 2'-deoxy (DNA)
# Target: IRF4
# Conditions: ASO
Sequence,"target mRNA inhibition (SK-MEL-28, 4 µM)",further results
"TAAGAGGGCAGTCAAT (sugars k3 d10 k3, PS)",17%,–
"TAATGTAGGGATACAG (sugars k3 d10 k3, PS)",78%,–
"CAGTACAGTCCACTCC (sugars k3 d10 k3, PS)",–,"target mRNA inhibition (MM.1R, 1 µM): 5%"
"AGCACTGGCATTGAGA (sugars k3 d10 k3, PS)",74%,"target mRNA inhibition (MM.1R, 0.074 µM): 4%; target mRNA inhibition (MM.1R, 0.222 µM): 0%; target mRNA inhibition (MM.1R, 0.666 µM): 10%; target mRNA inhibition (MM.1R, 2 µM): 24%; target mRNA inhibition (SK-MEL-28, 0.185 µM): -4% and 10% and -11%; target mRNA inhibition (SK-MEL-28, 15 µM): 86% and 83% and 98%"
"TCCCAAGATCGAGCGG (sugars k3 d10 k3, PS)",16%,–
"CACATCAATGTTTTAG (sugars k3 d10 k3, PS)",–,"target mRNA inhibition (H929, 0.04 µM): 14%; target mRNA inhibition (KMS11, 0.2 µM): 61% and 78%; target mRNA inhibition (MM.1R, 0.0625 µM): 48%; target mRNA inhibition (MM.1R, 0.25 µM): 62%; target mRNA inhibition (MM.1R, 1 µM): 66% and 75% and 72%; target mRNA inhibition (MM.1R, 4 µM): 89%"
"GTGATGTCAGGTTTTC (sugars kkkdddddddddkeke, PS)",–,"target mRNA inhibition (MM.1R, 1 µM): 34%"
"ACGGAAGTTTACACTG (sugars kkdddddddddekeke, PS)",–,"target mRNA inhibition (MM.1R, 1 µM): 8%"
"CCTATGCTGAACCCCA (sugars k3 d10 k3, PS)",–,"target mRNA inhibition (MM.1R, 1 µM): -12%"
"TCCATATGACCCAGTG (sugars k3 d10 k3, PS)",66%,–
"GGATAATATACCCCAA (sugars k3 d10 k3, PS)",64%,–
"TGGTAACTGTATGGAA (sugars k3 d10 k3, PS)",48%,–
"ACGGAAGTTTACACTG (sugars kkdddddddddkdkdk, PS)",–,"target mRNA inhibition (MM.1R, 1 µM): -2%"
"TGCTACTGCGGACATC (sugars k3 d10 k3, PS)",43%,–
"AATTAAAGAGCGCATT (sugars k3 d10 k3, PS)",17%,–
"TTTATGCCCTCGCTCA (sugars k3 d10 k3, PS)",24%,–
"GGAAAGACAAGTGCCC (sugars k3 d10 k3, PS)",54%,–

Sequence,"target mRNA inhibition (SK-MEL-28, 4 µM)",further results
"GAGAGTAAACTTGGCT (sugars k3 d10 k3, PS)",–,"target mRNA inhibition (MM.1R, 1 µM): 12%"
"CGTGTGCTTGCCAAGC (sugars kkdddddddddekeke, PS)",–,"target mRNA inhibition (MM.1R, 1 µM): 47% and 36%"
"TTAATTATGCAGAAGC (sugars k3 d10 k3, PS)",13%,–
"GGCGAGTTGGCACAAT (sugars k3 d10 k3, PS)",–,"target mRNA inhibition (MM.1R, 0.0625 µM): -13%; target mRNA inhibition (MM.1R, 0.25 µM): 3%; target mRNA inhibition (MM.1R, 1 µM): 49% and 30%; target mRNA inhibition (MM.1R, 4 µM): 60%"
"ATCCTTAATTATGCAG (sugars k3 d10 k3, PS)",39%,–
"CAGTTGTAAATGAGTC (sugars k3 d10 k3, PS)",89% and 86%,–
"TGAAAGACCCCAGCTA (sugars k3 d10 k3, PS)",4%,–
"AAATCTTCAACAGCAC (sugars k3 d10 k3, PS)",45%,–
"GCAAAAAATATAACGG (sugars k3 d10 k3, PS)",47%,–
"TGTATACCAACGACAG (sugars k3 d10 k3, PS)",58%,–
"GGCACGAGGAAGCATA (sugars k3 d10 k3, PS)",62%,–
"CAAAAACTTGGGTCAC (sugars k3 d10 k3, PS)",20%,–
"CCACTGGCGGAGCTTC (sugars k3 d10 k3, PS)",36%,–
"CAAAACTACTATTGTG (sugars k3 d10 k3, PS)",23%,–
"GAATTTCAGGAGCTAG (sugars k3 d10 k3, PS)",61%,–
"TAGTCGCGCAAGTCTA (sugars k3 d10 k3, PS)",-8%,–
"GCTGAGATAAGAAGCA (sugars k3 d10 k3, PS)",32%,–
